The subject of data set [1] is A2780 ovarian cancer cell line. In words: Cell survival and adhesion assay (luciferase), A2780. In kind it is cell-based. The note with it: 5 hours, A2780 cells overlayed onto human mesothelial cell monolayers, read-out: relative reduction in Luciferase activity, A2780 10 μM. In short, it runs like this: (§1)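 Luciferase-expressing tumour cells (10^5) were overlaid on confluent human mesothelial cell monolayers together with compound or DMSO for 5 hours. Non-adherent cells were washed off; adherent, surviving cells were lysed, protein-normalised and quantified by firefly luciferase luminescence.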

In data set [2] the test system is BxPC3 pancreatic cell line. In words: Cell survival and adhesion assay (luciferase), BxPC3. In kind it is cell-based. The settings on record: BXPC-3, 5 hours, BxPC3 cells overlayed onto human mesothelial cell monolayers, read-out: relative reduction in Luciferase activity, BxPC3 10 μM. In outline:
as §1

Data set [3] deals with SU86 pancreatic cancer cell line (Su.86.86). Description: Cell survival and adhesion assay (luciferase), SU86. The data set is classed as cell-based. The settings on record: 5 hours, SU86 cells overlayed onto human mesothelial cell monolayers, read-out: relative reduction in Luciferase activity, SU86 10 μM. In outline:
as §1

The test system of data set [4] is HT29 colon cancer cell line. Description: Cell survival and adhesion assay (luciferase), HT29. The data set is classed as cell-based. The note with it: HT-29, 5 hours, HT29 cells overlayed onto human mesothelial cell monolayers, read-out: relative reduction in Luciferase activity, HT29 10 μM. The method, then: SU86 is a pancreatic cancer cell line. HT29 is a colon cancer cell line. BxPC3 is a pancreatic cell line. A2780 is an ovarian cancer cell line.
BxPc-3 and Su.86.86 pancreatic and HT-29 colon and A2780 ovarian cancer cell lines were purchased from ATCC and cultured in DMEM supplemented with 10% fetal bovine serum, glutamine, penicillin, and streptomycin. All cells were cultured at 37° C. in a humidified incubator in a 5% CO2 atmosphere. The cancer cell lines were transduced with a retrovirus containing pLuc-puro, a constitutive luciferase reporter and selected in […] media. Transient transfection of a full-length human c-FLIP construct in the vector pcDNA3 was performed as previously described. Scaife et al. Cancer Research 2002, 62: 6870-78.
Pancreatic cancer cell cultures (BxPc-3 and Su.86.86) and colon cancer (HT-29) and ovarian cancer (A2780) cells that were stably transfected with a firefly luciferase construct were transiently suspended with trypsin-PBS. 10^5 cells were overlayed onto confluent monolayers of human mesothelial cells in 96-well plates while simultaneously adding various concentrations of compounds of the invention or DMSO for 5 hours. The non-adherent cells were carefully washed away from the wells twice with 100 μl/well of blocking buffer (1% BSA in PBS) and twice again with ice-cold PBS. Adherent and surviving cells were detected by luciferase activity in a luminometer as follows. The cells were lysed in 0.1% TritonX-100, 25 mM Gly-Gly (7.8), MgSO4, 4 mM EGTA, 1 mM DTT. The total protein concentration was normalized with lysis buffer. 50 μl of cell lysate was added per well of a 96-well microtiter plate. 50 μl of luciferin substrate (Promega) was added per well and then the light output determined in a luminometer.

Structures can show the parent of a compound that is named as a salt.

`CC(C)(C(=O)N1CCc2ccccc2C1)c1ccc(S(=O)(=O)/C=C/C#N)cc1` [Example 20, (E)-3-{4-[2-(3,4-Dihydro-1H-isoquinolin-2-yl)-1,1-dimethyl-2-oxo-ethyl]-benzenesulfonyl}-acrylonitrile] came in with a melting point of 54 to 60 °C. Moreover, the inhibition at 10 µM in data set [1] is greater than 85%. In addition, in data set [2], the inhibition at 10 µM was greater than 85%. Moreover, the inhibition at 10 µM in data set [3] was 50 to 85%.
The compound `COc1ccc(NC(=O)C(C)(C)c2ccc(S(=O)(=O)/C=C/C#N)cc2)cc1` [Example 23, 2-[4-((E)-2-Cyano-ethenesulfonyl)-phenyl]-N-(4-methoxy-phenyl)-isobutyramide] registered a melting point of 123 to 126 °C. For the same compound, in data set [1], the inhibition at 10 µM is greater than 85%. In data set [2], the inhibition at 10 µM is 50 to 85%. Also, the inhibition at 10 µM in data set [3] lay in the range of 50 to 85%.
For the compound `CC(C)(C(=O)NC1CCCCC1)c1ccc(S(=O)(=O)/C=C/C#N)cc1` [Example 12, 2-[4-((E)-2-Cyano-ethenesulfonyl)-phenyl]-N-cyclohexyl-isobutyramide], the melting point lay within 191 to 193 °C. For the same compound, in data set [1], the inhibition at 10 µM fell in the range of 50 to 85%. For the same compound, in data set [4], the inhibition at 10 µM was less than 10%. In data set [2], the inhibition at 10 µM fell in the range of 50 to 85%. Further, the inhibition at 10 µM in data set [3] fell in the range of 50 to 85%.
For the compound `CC(C)(C)c1ccc(S(=O)(=O)/C=C/c2ccccc2)cc1` [Example 57, 1-tert-Butyl-4-((E)-2-phenyl-ethenesulfonyl)-benzene], the melting point turned out to be 95 °C. Besides, the inhibition at 10 µM in data set [1] was less than 10%. In data set [4], the inhibition at 10 µM is less than 10%. In data set [2], the inhibition at 10 µM was less than 10%. Also, in data set [3], the inhibition at 10 µM is less than 10%.
In the case of `CC(C)(C(=O)NCc1ccc(-n2cccn2)cc1)c1ccc(S(=O)(=O)/C=C/C#N)cc1` (as salt: trifluoroacetic acid salt) [Example 21, 2-[4-((E)-2-Cyano-ethenesulfonyl)-phenyl]-N-(4-pyrazol-1-yl-benzyl)-isobutyramide], the melting point was in the range of 47 to 53 °C.
`CC(C)(c1ccc(S(=O)(=O)/C=C/C#N)cc1)c1nnc(-c2ccccc2)o1` [Example 72, (E)-3-{4-[1-Methyl-1-(5-phenyl-[1,3,4]oxadiazol-2-yl)-ethyl]-benzenesulfonyl}-acrylonitrile]: the inhibition at 10 µM in data set [1] is greater than 85%; in data set [4] it was greater than 85%; in data set [2], 50 to 85%; in data set [3], 50 to 85%.
For `C/C=C/S(=O)(=O)c1ccc(C(C)(C)C)cc1` [Example 56, 1-tert-Butyl-4-[((E)-prop-1-ene)-1-sulfonyl]-benzene], the melting point worked out at 80 °C. In data set [1], the inhibition at 10 µM was less than 10%. Besides, the inhibition at 10 µM in data set [4] is less than 10%. Further, in data set [2], the inhibition at 10 µM was less than 10%. Besides, the inhibition at 10 µM in data set [3] is less than 10%.
On to `N#C/C=C/S(=O)(=O)c1ccc(C2(C(=O)O)CC2)cc1` [Example 62, 1-[4-((E)-2-Cyano-ethenesulfonyl)-phenyl]-cyclopropanecarboxylic acid], for which the inhibition at 10 µM in data set [1] was 10 to 50%; in data set [4] it was less than 10%; in data set [2] it was less than 10%; in data set [3], 10 to 50%.
As for `CC(C)(C(=O)NCC(F)F)c1ccc(S(=O)(=O)/C=C/C#N)cc1` [Example 11, 2-[4-((E)-2-Cyano-ethenesulfonyl)-phenyl]-N-(2,2-difluoro-ethyl)-isobutyramide], the inhibition at 10 µM in data set [1] is 10 to 50%; in data set [4], less than 10%; in data set [2] it was 10 to 50%; in data set [3], 10 to 50%.
Take `CC(C)(C(=O)NCc1ccccc1)c1ccc(S(=O)(=O)/C=C/C#N)cc1` [Example 6, N-Benzyl-2-[4-((E)-2-cyano-ethenesulfonyl)-phenyl]-isobutyramide]: the inhibition at 10 µM in data set [1] is greater than 85%; in data set [4] it was less than 10%; in data set [2], 50 to 85%; in data set [3], 50 to 85%.
On to `CC(C)(C)c1cc(S(=O)(=O)/C=C/C#N)ccc1OCC(=O)O` [Example 61, [2-tert-Butyl-4-((E)-2-cyano-ethenesulfonyl)-phenoxy]-acetic acid], for which the inhibition at 10 µM was less than 10% in data set [1], less than 10% in data set [4], 10 to 50% in data set [2] and less than 10% in data set [3].
Regarding `CC(C)(C(=O)NCc1ccc(Cl)cc1)c1ccc(S(=O)(=O)/C=C/C#N)cc1` [Example 14, N-(4-Chloro-benzyl)-2-[4-((E)-2-cyano-ethenesulfonyl)-phenyl]-isobutyramide], the inhibition at 10 µM in data set [1] was greater than 85%; in data set [4] it was 10 to 50%; in data set [2] it was 50 to 85%; in data set [3], 50 to 85%.
Turning to `Cc1ccc2oc(C(C)(C)c3cccc(S(=O)(=O)/C=C/C#N)c3)nc2c1` [Example 66, (E)-3-{3-[1-Methyl-1-(5-methyl-benzoxazol-2-yl)-ethyl]-benzenesulfonyl}-acrylonitrile; compound with trifluoro-acetic acid], the inhibition at 10 µM in data set [1] was greater than 85%; in data set [4] it was greater than 85%; in data set [2], 50 to 85%; in data set [3], 50 to 85%.
For `C=C(c1ccccc1)S(=O)(=O)c1ccc(C(C)(C)C)cc1` [Example 58, 1-tert-Butyl-4-(1-phenyl-ethenesulfonyl)-benzene], the melting point was determined as 99 °C. The inhibition at 10 µM in data set [1] is less than 10%. In data set [4], the inhibition at 10 µM lay within 10 to 50%. For the same compound, in data set [2], the inhibition at 10 µM was in the range of 50 to 85%. Moreover, in data set [3], the inhibition at 10 µM fell in the range of 10 to 50%.
On to `CC(C)(C)c1cc(S(=O)(=O)/C=C/C#N)ccc1OCC(=O)NCc1ccc(F)cc1` [Example 64, 2-[2-tert-Butyl-4-((E)-2-cyano-ethenesulfonyl)-phenoxy]-N-(4-fluoro-benzyl)-acetamide], for which the inhibition at 10 µM in data set [1] is greater than 85%; in data set [4] it was greater than 85%; in data set [2] it was greater than 85%; in data set [3], 50 to 85%.
`CCOC(=O)/C=C/S(=O)(=O)c1ccc(C(C)(C)C)cc1` [Example 59, (E)-3-(4-tert-Butyl-benzenesulfonyl)-acrylic acid ethyl ester] gave a melting point of 88 to 91 °C. Further, in data set [1], the inhibition at 10 µM lay in the range of 50 to 85%. The inhibition at 10 µM in data set [4] was in the range of 10 to 50%. Also, the inhibition at 10 µM in data set [2] lay in the range of 50 to 85%. The inhibition at 10 µM in data set [3] was 10 to 50%.
`CC(C)CNC(=O)C(C)(C)c1ccc(S(=O)(=O)/C=C/C#N)cc1` [Example 8, 2-[4-((E)-2-Cyano-ethenesulfonyl)-phenyl]-N-isobutyl-isobutyramide]: the inhibition at 10 µM in data set [1] was 50 to 85%; in data set [4] it was 10 to 50%; in data set [2] it was 50 to 85%; in data set [3], 50 to 85%.
Consider `CC(C)(C)c1ccc(S(=O)(=O)/C=C/C(N)=O)cc1` [Example 55, (E)-3-(4-tert-Butyl-benzenesulfonyl)-acrylamide], for which the melting point was 151 °C. Further, the inhibition at 10 µM in data set [1] lay within 10 to 50%. Also, the inhibition at 10 µM in data set [4] lay within 10 to 50%. Besides, the inhibition at 10 µM in data set [2] was in the range of 50 to 85%. Also, in data set [3], the inhibition at 10 µM fell in the range of 10 to 50%.
As to `CC(C)(C)c1ccc(S/C=C/C#N)cc1` [Example 60, (E)-3-(4-tert-Butyl-phenylsulfanyl)-acrylonitrile], the inhibition at 10 µM in data set [1], in data set [4], in data set [2] and in data set [3] was less than 10% each time.

These data come from patent publication US9475766B2, “Substituted aromatic sulfur compounds and methods of their use” (Cephalon, Inc., priority 2011, dated 2016).
